Tests used:
Test in all cases: relative viability (nuclei count vs DMSO), 5 days (fraction); higher = more cells survive
[1] = compound: NCC(=O)Nc1ccc(-n2nc(C(F)(F)F)cc2-c2ccc3c(ccc4ccccc43)c2)cc1 + NC(=O)Nc1cc(-c2cccc(F)c2)sc1C(=O)N[C@H]1CCCNC1 [AZD7762] (partner 0.2 µM)
Outline: (§1)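 Dosing by pin tool came one day after lung cancer cell lines were seeded in 1536-well plates, using either one drug or a fixed anchor-drug dose plus five library-drug doses (not always all listed) in √10 steps. After 5 days, nuclei were counted on 4× images. Relative viability is treated-well nuclei count divided by vehicle-well nuclei count, and values are medians of duplicate plates.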

[2] = compound: NCC(=O)Nc1ccc(-n2nc(C(F)(F)F)cc2-c2ccc3c(ccc4ccccc43)c2)cc1 + CC(=O)Nc1cccc(-n2c(=O)n(C3CC3)c(=O)c3c(Nc4ccc(I)cc4F)n(C)c(=O)c(C)c32)c1 [Trametinib] (partner 0.02 µM)
Outline: as §1

[3] = compound: C1CSC2=C(C(=O)N1)SC3=C2C=C(C=C3)O [kb NB 142-70] + CS(=O)(=O)N1CCN(Cc2cc3nc(-c4cccc5[nH]ncc45)nc(N4CCOCC4)c3s2)CC1 [Pictilisib] (partner 1 µM)
Outline: as §1

[4] = compound: C1CSC2=C(C(=O)N1)SC3=C2C=C(C=C3)O [kb NB 142-70] + O=C(CCCCCCC(=O)Nc1ccccc1)NO [Vorinostat] (partner 1 µM)
Outline: as §1

| Cell Line | relative viability ([1]; first compound 0.02 µM) | relative viability ([1]; first compound 0.06325 µM) | relative viability ([1]; first compound 0.2 µM) | relative viability ([1]; first compound 0.6325 µM) | relative viability ([1]; first compound 2 µM) | relative viability ([2]; first compound 0.02 µM) | relative viability ([2]; first compound 0.06325 µM) | relative viability ([2]; first compound 0.2 µM) | relative viability ([2]; first compound 0.6325 µM) | relative viability ([2]; first compound 2 µM) | relative viability ([3]; first compound 0.1 µM) | relative viability ([3]; first compound 1 µM) | relative viability ([3]; first compound 3.162 µM) | relative viability ([4]; first compound 0.1 µM) | relative viability ([4]; first compound 1 µM) | relative viability ([4]; first compound 3.162 µM) |
| --- | --- | --- | --- | --- | --- | --- | --- | --- | --- | --- | --- | --- | --- | --- | --- | --- |
| NCI-H358 | 0.535 | 0.593 | 0.607 | 0.609 | 0.526 | 0.127 | 0.127 | 0.133 | 0.138 | 0.15 | 0.35 | 0.3 | 0.189 | 0.699 | 0.654 | 0.127 |
| NCI-H441 | 1.12 | 1.1 | 1.32 | 1.06 | 1.12 | 0.394 | 0.436 | 0.507 | 0.523 | 0.555 | 0.497 | 0.429 | 0.305 | 0.89 | 0.844 | 0.644 |
| NCI-H460 | 0.773 | 0.684 | 0.633 | 0.623 | 0.643 | 0.19 | 0.175 | 0.165 | 0.145 | 0.18 | 0.363 | 0.323 | 0.274 | 0.733 | 0.755 | 0.436 |
| NCI-H596 | 1.14 | 1.03 | 0.984 | 1.28 | 1.08 | 0.804 | 0.725 | 0.827 | 0.83 | 1.25 | 0.399 | 0.351 | 0.352 | 0.656 | 0.67 | 0.538 |
| NCI-H647 | 0.384 | 0.39 | 0.524 | 0.431 | 0.527 | 0.535 | 0.512 | 0.591 | 0.434 | 0.49 | 0.497 | 0.474 | 0.408 | 0.716 | 0.597 | 0.492 |
| NCI-H650 | 0.988 | 1.12 | 1.08 | 1.02 | 1.05 | 0.991 | 1.03 | 1.01 | 0.948 | 0.994 | 1.05 | 0.94 | 0.756 | 0.514 | 0.585 | 0.363 |
| NCI-H727 | 0.531 | 0.53 | 0.58 | 0.696 | 0.599 | 0.411 | 0.372 | 0.351 | 0.346 | 0.394 | 0.425 | 0.469 | 0.346 | 1.35 | 1.18 | 1.24 |
| NCI-H838 | 1.01 | 0.922 | 0.986 | 0.913 | 0.957 | 0.515 | 0.539 | 0.521 | 0.43 | 0.411 | 0.444 | 0.447 | 0.424 | 0.782 | 0.77 | 0.778 |
| NCI-H1355 | 0.717 | 0.776 | 0.797 | 0.776 | 0.806 | 0.414 | 0.481 | 0.47 | 0.428 | 0.433 | 0.491 | 0.428 | 0.425 | 0.605 | 0.643 | 0.657 |
| NCI-H1395 | 0.373 | 0.421 | 0.37 | 0.407 | 0.38 | 1.09 | 0.998 | 1.1 | 1.03 | 1.09 | 0.901 | 0.687 | 0.6 | 0.7 | 0.748 | 0.701 |
| NCI-H1437 | 0.974 | 1.21 | 1.13 | 1.1 | 1.11 | 0.519 | 0.579 | 0.497 | 0.467 | 0.683 | 0.406 | 0.459 | 0.37 | 0.857 | 0.895 | 0.77 |
| NCI-H1651 | 0.447 | 0.433 | 0.513 | 0.47 | 0.423 | 0.804 | 0.815 | 0.858 | 0.798 | 0.851 | 0.563 | 0.497 | 0.344 | 0.543 | 0.579 | 0.566 |
| NCI-H1666 | 0.75 | 0.844 | 0.919 | 0.868 | 0.91 | 0.905 | 0.849 | 0.914 | 0.868 | 0.851 | 0.405 | 0.346 | 0.204 | 1.1 | 1.05 | 0.976 |
| NCI-H1734 | 0.52 | 0.556 | 0.565 | 0.515 | 0.611 | 0.686 | 0.712 | 0.667 | 0.657 | 0.7 | 0.429 | 0.432 | 0.363 | 0.829 | 0.724 | 0.538 |
| NCI-H1755 | 0.448 | 0.569 | 0.448 | 0.394 | 0.449 | 0.782 | 0.765 | 0.737 | 0.768 | 0.71 | 0.462 | 0.504 | 0.431 | 0.709 | 0.801 | 0.674 |
| NCI-H1793 | 0.434 | 0.568 | 0.573 | 0.447 | 0.742 | 0.438 | 0.373 | 0.498 | 0.435 | 0.396 | 0.313 | 0.379 | 0.386 | 0.807 | 1.02 | 0.654 |
| NCI-H1915 | 0.644 | 0.729 | 0.642 | 0.703 | 0.754 | 0.284 | 0.314 | 0.31 | 0.296 | 0.322 | 1.01 | 0.889 | 0.905 | 0.559 | 0.565 | 0.45 |
| NCI-H1944 | 0.476 | 0.484 | 0.551 | 0.47 | 0.559 | 0.429 | 0.408 | 0.437 | 0.413 | 0.403 | 0.358 | 0.375 | 0.41 | 0.609 | 0.566 | 0.595 |
| NCI-H1975 | 0.732 | 0.699 | 0.777 | 0.691 | 0.708 | 0.399 | 0.39 | 0.405 | 0.32 | 0.284 | 0.263 | 0.264 | 0.178 | 0.708 | 0.816 | 0.554 |
| NCI-H1993 | 0.957 | 0.933 | 0.706 | 0.839 | 0.784 | 0.494 | 0.41 | 0.586 | 0.64 | 0.515 | 0.917 | 0.787 | 0.649 | 0.921 | 0.844 | 0.727 |
| NCI-H2085 | 0.943 | 1.03 | 1.04 | 1.06 | 1.04 | 0.402 | 0.623 | 0.507 | 0.547 | 0.626 | 0.486 | 0.53 | 0.398 | 0.772 | 0.857 | 0.483 |
| NCI-H2087 | 1.29 | 1.24 | 1.31 | 1.36 | 1.23 | 0.155 | 0.209 | 0.214 | 0.181 | 0.185 | 0.905 | 0.75 | 0.576 | 0.506 | 0.687 | 0.423 |
| NCI-H2126 | 0.969 | 1.12 | 1.02 | 1.01 | 1.01 | 0.586 | 0.599 | 0.626 | 0.553 | 0.54 | 0.519 | 0.479 | 0.515 | 0.755 | 0.796 | 0.805 |
| NCI-H2170 | 0.87 | 0.907 | 0.94 | 0.911 | 0.86 | 0.89 | 0.91 | 0.989 | 0.884 | 0.912 | 0.299 | 0.275 | 0.227 | 0.823 | 0.86 | 0.744 |
| NCI-H2347 | 0.719 | 0.696 | 0.756 | 0.817 | 0.75 | 0.311 | 0.285 | 0.297 | 0.268 | 0.357 | 0.874 | 0.659 | 0.324 | 0.629 | 0.641 | 0.599 |
| NCI-H2405 | 0.725 | 0.781 | 0.774 | 0.728 | 0.718 | 0.5 | 0.721 | 0.67 | 0.635 | 0.734 | 0.378 | 0.379 | 0.382 | 1.04 | 1.03 | 0.587 |
| NCI-H3122 | 0.897 | 0.983 | 1 | 1.01 | 0.969 | 0.204 | 0.245 | 0.188 | 0.232 | 0.261 | 0.578 | 0.649 | 0.551 | 0.908 | 1.08 | 0.887 |
| PC-3 [JPC-3] | 0.792 | 0.873 | 0.85 | 0.88 | 0.832 | 0.701 | 0.776 | 0.715 | 0.71 | 0.775 | 0.769 | 0.768 | 0.672 | 0.814 | 0.846 | 0.458 |
| PC-14 | 0.419 | 0.367 | 0.36 | 0.328 | 0.381 | 0.861 | 0.704 |  | 0.625 | 0.608 | 0.679 | 0.795 | 0.58 | 0.857 | 0.755 | 0.633 |
| RERF-LC-KJ | 0.959 | 0.863 | 0.996 | 1.12 | 1.03 | 0.89 | 0.839 | 0.847 | 0.843 | 0.848 | 0.504 | 0.519 | 0.374 | 0.729 | 0.754 | 0.677 |

Source: the supplement of paper PMC10307832
